Data set [1] has as its system MCF7. The experiment in a line: In-vitro antitumor activity against human MCF7 cells incubated for 72 hrs by CCK8 assay. The note with it: MCF7, 72 h. Type of data set: functional, cell-based.
The test system of data set [2] is A549. The experiment in a line: In-vitro antitumor activity against human A549 cells incubated for 72 hrs by CCK8 assay. Type of data set: functional, cell-based. The note with it: A549, 72 h.
A short description of data set [3]: In-vitro cytotoxic activity against human HUVEC cells incubated for 72 hrs by CCK8 assay. Type of data set: toxicity, cell-based.
Data set [4] relates to HCT-116. The experiment in a line: In-vitro antitumor activity against human HCT-116 cells incubated for 72 hrs by CCK8 assay. It is filed as functional, cell-based. Conditions: HCT-116, 72 h.
Data set [5] has as its system HCT-116. The experiment in a line: Induction of cell cycle arrest in human HCT-116 cells assessed as accumulation at S phase at 0.25 uM incubated for 48 hrs by flow cytometry (reference value: 34.21%). Type of data set: functional.
Data set [6] relates to HCT-116. The experiment in a line: Induction of cell cycle arrest in human HCT-116 cells assessed as accumulation at G2/M phase at 0.01 uM incubated for 48 hrs by flow cytometry (reference value: 32.63%). Type of data set: functional.
In data set [7] the test system is HCT-116. The experiment in a line: Induction of apoptosis in human HCT-116 cells assessed as decrease in Bcl-2 protein expression at 0.05 to 1.5 uM incubated for 24 hrs by Western blot analysis. Type of data set: functional, cell-based. The note with it: dose 0.05-1.5 µM.
For data set [8], the system named is HCT-116. The experiment in a line: Induction of apoptosis in human HCT-116 cells assessed as reduction in p53 protein expression at 1.5 uM incubated for 24 hrs by Western blot analysis. Type of data set: functional, cell-based.
In data set [9] the test system is HCT-116. The experiment in a line: Induction of apoptosis in human HCT-116 cells at 0.05 uM incubated for 48 hrs by Annexin V/PI staining based flow cytometry (reference value: 3.86%). It is filed as functional.
For data set [10], the system named is HCT-116. The experiment in a line: Induction of apoptosis in human HCT-116 cells at 0.05 to 0.25 uM incubated for 48 hrs by Annexin V/PI staining based flow cytometry. It is filed as functional, cell-based. Conditions: dose 0.05-0.25 µM, DDE = dose-dependent effect.
Data set [11] has as its system HCT-116. The experiment in a line: Induction of cell cycle arrest in human HCT-116 cells assessed as reduction in Cdc25c expression at 0.05 to 1.5 uM incubated for 24 hrs by Western blot analysis. It is filed as functional, cell-based. The note with it: dose 0.05-1.5 µM.
Data set [12] deals with HCT-116. The experiment in a line: Induction of cell cycle arrest in human HCT-116 cells assessed as accumulation at S phase at 0.01 uM incubated for 48 hrs by flow cytometry (reference value: 34.21%). Type of data set: functional.
Data set [13] deals with HCT-116. The experiment in a line: Induction of apoptosis in human HCT-116 cells assessed as reduction in cytochrome C protein expression at 1.5 uM incubated for 24 hrs by Western blot analysis. It is filed as functional, cell-based.
The test system of data set [14] is HCT-116. The experiment in a line: Induction of apoptosis in human HCT-116 cells assessed as increase in Bax protein expression at 0.05 to 1.5 uM incubated for 24 hrs by Western blot analysis. The note with it: dose 0.05-1.5 µM. Type of data set: functional, cell-based.
Data set [15] deals with HCT-116. The experiment in a line: Induction of apoptosis in human HCT-116 cells at 0.15 uM incubated for 48 hrs by Annexin V/PI staining based flow cytometry (reference value: 3.86%). It is filed as functional.
The test system of data set [16] is HCT-116. The experiment in a line: Induction of apoptosis in human HCT-116 cells at 0.25 uM incubated for 48 hrs by Annexin V/PI staining based flow cytometry (reference value: 3.86%). Type of data set: functional.
Data set [17] relates to HCT-116. The experiment in a line: Inhibition of cell colony formation of human HCT-116 cells at 0.025 to 0.5 uM by clonogenicity assay. It is filed as functional, cell-based. Conditions: dose 0.025-0.5 µM.
Data set [18] deals with HCT-116. The experiment in a line: Induction of cell cycle arrest in human HCT-116 cells assessed as increase in Cyclin B1 expression at 0.05 to 1.5 uM incubated for 24 hrs by Western blot analysis. It is filed as functional, cell-based. Conditions: dose 0.05-1.5 µM.
The test system of data set [19] is HCT-116. The experiment in a line: Induction of cell cycle arrest in human HCT-116 cells assessed as accumulation at S phase at 0.05 uM incubated for 48 hrs by flow cytometry (reference value: 34.21%). Type of data set: functional.
Data set [20] concerns HCT-116. The experiment in a line: Induction of cell cycle arrest in human HCT-116 cells assessed as accumulation at G2/M phase at 0.05 uM incubated for 48 hrs by flow cytometry (reference value: 32.63%). It is filed as functional.
Data set [21] concerns HCT-116. The experiment in a line: Inhibition of cell proliferation of human HCT-116 cells at 0.01 to 10 uM incubated for 48 hrs by RTCA assay. It is filed as functional. The note with it: dose 0.01-10 µM.
Data set [22] concerns HCT-116. The experiment in a line: Induction of cell cycle arrest in human HCT-116 cells assessed as accumulation at G1 phase at 0.01 uM incubated for 48 hrs by flow cytometry (reference value: 33.16%). Type of data set: functional.
The subject of data set [23] is HCT-116. The experiment in a line: Inhibition of cell migration of human HCT-116 cells at 0.01 to 0.15 uM incubated for 24 hrs by wound healing assay. Type of data set: functional, cell-based. Conditions: dose 0.01-0.15 µM.
The subject of data set [24] is HCT-116. The experiment in a line: Induction of cell cycle arrest in human HCT-116 cells assessed as accumulation at G2/M phase at 0.25 uM incubated for 48 hrs by flow cytometry (reference value: 32.63%). It is filed as functional.
The subject of data set [25] is HCT-116. The experiment in a line: Induction of apoptosis in human HCT-116 cells at 0.1 uM incubated for 48 hrs by Annexin V/PI staining based flow cytometry (reference value: 3.86%). It is filed as functional.
The test system of data set [26] is HCT-116. The experiment in a line: Induction of apoptosis in human HCT-116 cells assessed as increase in p53 protein expression at 0.05 to 1.5 uM incubated for 24 hrs by Western blot analysis. Type of data set: functional, cell-based. Conditions: dose 0.05-1.5 µM.
Data set [27] has as its system HCT-116. The experiment in a line: Induction of cell cycle arrest in human HCT-116 cells assessed as accumulation at G1 phase at 0.25 uM incubated for 48 hrs by flow cytometry (reference value: 33.16%). It is filed as functional.
The test system of data set [28] is HCT-116. The experiment in a line: Induction of apoptosis in human HCT-116 cells assessed as increase in cytochrome C protein expression at 0.05 to 1.5 uM incubated for 24 hrs by Western blot analysis. Type of data set: functional, cell-based. Conditions: dose 0.05-1.5 µM.
Data set [29] relates to HCT-116. The experiment in a line: Induction of cell cycle arrest in human HCT-116 cells assessed as accumulation at G1 phase at 0.05 uM incubated for 48 hrs by flow cytometry (reference value: 33.16%). It is filed as functional.
Data set [30] concerns HCT-116. The experiment in a line: Inhibition of cell migration of human HCT-116 cells at 0.25 uM incubated for 24 hrs by wound healing assay. It is filed as functional, cell-based.

In brackets after ≈: the same amount, converted by molar mass. Activity calls are given as the source filed them. The rule behind the calls is not given here.

For `CC[C@@]1(O)C(=O)OCc2c1cc1n(c2=O)Cc2cc3ccccc3nc2-1` [CAMPTOTHECIN], the IC50 in data set [1] was determined as 21 nM; in [2], 74 nM; in data set [4] it was 40 nM. In data set [3], this compound came in with an IC50 at 72 h of 12 nM.
`CN1c2ccc(F)cc2C(=O)N2CCc3c([nH]c4ccc(OC(=O)CCSSCCC(=O)Oc5ccc6[nH]c7c(c6c5)CCN5C(=O)c6cc(F)ccc6N(C)C75)cc34)C21` (configuration not stated): the IC50 in [1] is 410 nM; in [2], 610 nM; in data set [4], 170 nM. This compound also returned an IC50 at 72 h in [3] of 130 nM.
In the same order, the values of `CN1c2ccc(F)cc2C(=O)N2CCc3c([nH]c4ccc(OC(=O)CCC(=O)Oc5ccc6[nH]c7c(c6c5)CCN5C(=O)c6cc(F)ccc6N(C)C75)cc34)C21` (configuration not stated) are 890 nM, 680 nM, 32 nM and 210 nM.
For the compound `CN1c2ccc(F)cc2C(=O)N2CCc3c([nH]c4ccc(OC(=O)CCCC(=O)Oc5ccc6[nH]c7c(c6c5)CCN5C(=O)c6cc(F)ccc6N(C)C75)cc34)C21` (configuration not stated), the Activity was 0% in data set [5]; 30.43% in data set [6]; 47.78% in data set [9]; “Dde” in [10]; 26.96% in [12]; 58.73% in data set [15]. The Activity in [16] was 75.11%; in [19] it was 0%; in data set [20] it was 59.8%; in [22] it was 42.61%; in [24], 65.23%; in data set [25] it was 54.32%. The Activity in data set [27] was determined as 34.77%; in data set [29], 40.2%. The result in [7], in data set [8], in data set [11], in [13], in [14] and in data set [18] was Active. Further, the outcome in data set [26] and in [28] was Active. For the same compound, the IC50 amounted to 200 nM in data set [1], 730 nM in data set [2] and 32 nM in data set [4]. In addition, the inhibition entry in data set [17] and in data set [23] was “Active” each time. The lowest concentration to inhibit growth in data set [21] (MIC) was 0.01 µM (≈ 7.71 ng/mL). Moreover, the inhibition entry in [21] (DDE = dose-dependent effect) was “Dde”. For the same compound, half-maximal inhibition in data set [3] (IC50 at 72 h) required 580 nM.
On to `CN1c2ccc(F)cc2C(=O)N2CCc3c([nH]c4ccc(O)cc34)C21` (configuration not stated), for which the IC50 in data set [1] is 44 nM; in [2], 460 nM; in data set [4], 73 nM. The IC50 at 72 h in data set [3] came to 260 nM. Further, the inhibition result in data set [30] is “Active”.

The values are drawn from ChEMBL document CHEMBL5143702, “Discovery of novel bis-evodiamine derivatives with potent antitumor activity” (Bioorg Med Chem, 2022).
